# From patent US9034391B2, “Compositions with enhanced bioavailability and fast acting inhibitor or gastric acid secretion” (YALE UNIVERSITY, priority 2006, dated 2015)
# Values joined by “and” are separate entries in the source; they are usually repeats but may differ in a detail not shown here. Equal entries are not always repeated. “Also recorded” adds a separate entry of the source.
# Legend:
# H+,K+-ATPase [1] = target: T1, H+,K+-ATPase (Rattus norvegicus, UniProt P09626); experiment: Intracellular pH recovery (BCECF, NH4Cl prepulse) in isolated rat gastric glands; type: cell-based
# T1 construct: Individual glands were isolated using a hand-dissection technique as described previously; from tissue; host or cells: hand-dissected rat gastric glands (corpus and antrum), parietal cells
# Source text: Following removal of the stomach, the stomach was opened longitudinally and the corpus and antrum isolated and sliced into 0.5 cm square sections, and washed with cold Ringer solution to remove residual food particles. The tissues were transferred to the stage of a dissecting microscope. Individual glands were isolated using a hand-dissection technique as described previously^36. Following isolation, individual isolated glands were allowed to adhere to cover slips that had been pre-coated with Cell-Tak (Collaborative Research, Bedford, Mass.) and were transferred to the stage of an inverted microscope.
# Isolated gastric glands were incubated in a HEPES-buffered Ringer's solution containing either 10 μmol of the pH-sensitive dye BCECF-AM (2′,7′)-bis-(2-carboxyethyl)-5-(and -6)-carboxy-fluorescin, aceto-methyl ester (Molecular Probes, Eugene, Oreg.) for 10 minutes as described previously^37-39. […] A minimum of 8 cells or regions was selected per gland.
# Proton extrusion by individual parietal cells was monitored by observing recovery of pHi after acid loading the cells with Na^+ free HEPES solution containing 20 mM NH4C1.
# The recovery rates are expressed as the ΔpH/min, and were calculated over the pH range of 6.5-6.8.
# [2] = tested on: gastric acid secretion in freshly isolated rat whole stomach; experiment: Whole stomach pH measurements, ex vivo rat whole stomach preparation
# Procedure: Before the experiments animals were fasted for 24 h to reduce basal acid secretion to a consistent minimum. Animals were killed with an overdose of isoflurane and an abdominal incision was made. The stomach was ligated at the duodenal and esophageal junction and excised. Then 1 ml of non buffered, isotonic saline (140 mM) was infused into the lumen of the stomach. […] The stomachs were then placed in either oxygenated HEPES-buffered Ringer solution or in the same solution containing 100 μM histamine alone or additionally 300 μM ZnCl2 (pH 7.4) and maintained at 37° C. After 1 hour the stomach contents were aspirated and the pH was recorded.
# [3] = tested on: histamine induced acid secretion; experiment: Oral zinc supplementation in rats, histamine induced proton extrusion of isolated glands; type: in vivo, rat
# Source text: Following dye-loading the chamber was flushed with a HEPES solution to remove all non-de-esterified dye. The perfusion chamber was mounted on the stage of an inverted microscope (Olympus IX50), which was used in the epifluorescence mode with a 40× objective. BCECF was successively excited at 440 nm and 490 nm from a monochromator light source, and the resultant fluorescent signal was monitored at 535 nm using an intensified charge-coupled device camera. Individual regions of interest were outlined and simultaneously monitored every 15 sec. during the course of the experiment. A minimum of 8 cells or regions was selected per gland.
# Proton extrusion by individual parietal cells was monitored by observing recovery of pHi after acid loading the cells with Na^+ free HEPES solution containing 20 mM NH4C1. Parietal cells were subsequently superfused with Na^+ free HEPES, which abolished all Na^+/H^+ Exchanger (NHE) activity, trapping H^+ within the cytosol and initiating an immediate drop in pHi. Under these conditions, the only potential H^+ extrusion pathway is via the H^+,K^+-ATPase activation.
# The intensity ratio data (490/440) were converted to pH values using the high K^+/nigericin calibration technique^40. Intracellular pH recovery rates were calculated from the same initial starting pH to eliminate the potential variation in the individual intracellular buffering power of the cells under the different experimental conditions. All data including the individual images for all wavelengths were recorded to the hard disk which allowed us to return to the individual images after the experiment for further analysis. The recovery rates are expressed as the ΔpH/min, and were calculated over the pH range of 6.5-6.8. All chemicals were obtained from Sigma and Molecular Probes. All data were summarized as means±SE and were analysed by grouping measurements at baseline values.
# H+,K+-ATPase [4] = target: H+,K+-ATPase (Homo sapiens, UniProt P20648); settings: human gastric glands
# Procedure: The human tissue was transferred from the OR in a HEPES-buffered Ringer solution. The tissue was stored on ice and immediately the isolated glands were dissected as described above.
# Isolated gastric glands were incubated in a HEPES-buffered Ringer's solution containing either 10 μmol of the pH-sensitive dye BCECF-AM (2′,7′)-bis-(2-carboxyethyl)-5-(and -6)-carboxy-fluorescin, aceto-methyl ester (Molecular Probes, Eugene, Oreg.) for 10 minutes as described previously^37-39. Following dye-loading the chamber was flushed with a HEPES solution to remove all non-de-esterified dye. The perfusion chamber was mounted on the stage of an inverted microscope (Olympus IX50), which was used in the epifluorescence mode with a 40× objective. BCECF was successively excited at 440 nm and 490 nm from a monochromator light source, and the resultant fluorescent signal was monitored at 535 nm using an intensified charge-coupled device camera. Individual regions of interest were outlined and simultaneously monitored every 15 sec. during the course of the experiment. A minimum of 8 cells or regions was selected per gland.
# Proton extrusion by individual parietal cells was monitored by observing recovery of pHi after acid loading the cells with Na^+ free HEPES solution containing 20 mM NH4C1. Parietal cells were subsequently superfused with Na^+ free HEPES, which abolished all Na^+/H^+ Exchanger (NHE) activity, trapping H^+ within the cytosol and initiating an immediate drop in pHi. […]
# The intensity ratio data (490/440) were converted to pH values using the high K^+/nigericin calibration technique^40. Intracellular pH recovery rates were calculated from the same initial starting pH to eliminate the potential variation in the individual intracellular buffering power of the cells under the different experimental conditions. […] The recovery rates are expressed as the ΔpH/min, and were calculated over the pH range of 6.5-6.8. […] All data were summarized as means±SE and were analysed by grouping measurements at baseline values.
# fundic H+,K+-ATPase = target: T2, fundic H+,K+-ATPase (Rattus norvegicus, UniProt P09626); experiment: Intracellular pH recovery in isolated rat fundic (F1) glands; type: cell-based; settings: for effect on fundic (F1) acid secretion (in words): histamine 100 μM
# T2 construct: Glands adjacent to the esophageal junction were hand dissected; from tissue; host or cells: hand-dissected fundic glands of Sprague Dawley rat stomach, next to the esophageal junction
# Procedure: Male Sprague Dawley rats weighing 200-300 g were housed in climate and humidity controlled, light cycled rooms and fed standard chow with free access to water. Prior to experiments, animals were fasted while allowing free access to water for 18-24 hours to reduce basal acid secretion. Following isoflurane anesthesia the animals were sacrificed, an abdominal incision was made exposing the stomach. After isolating the esophagus and duodenal junctures a total gastrectomy was performed with 1-2 cm of esophagus remaining attached to the gastrectomy. We included the esophageal juncture to have a common landmark for all fundic isolations. While holding the esophagus with forceps approximately 3 mm of fundus was removed with 5 mm of the intact esophagus.
# The removed fundic tissue was placed in ice cold HEPES-buffered Ringer-solution (pH adjusted to 7.4 at 4° C.) and transferred to the stage of a dissection microscope. The fundic glands were visualized under the microscope at 50× magnification. Glands adjacent to the esophageal junction were hand dissected. […]
# Using the same protocol that we developed for isolated corpus gland perfusion^20a, 21a individual fundic glands were loaded with a […] of the pH sensitive dye (BCECF, (2′7-bis(2-carbocyethal)-5-(and 6)-carboxyflurorescein-acetomethylester; Molecular Probes, OR USA)) for 15 minutes. […] Acid extrusion was monitored in the absence of bicarbonate. […] Intracellular pH recovery rates (H^+, K^+-ATPase activity) were measured in Na^+ free HEPES solutions containing: 1) 100 μM histamine 2) 100 μM pentagastrin. […]
# The recovery rates are expressed as the ΔpHi/min, and were calculated over the pH range of 6.5-6.9.
# Activation of acid secretion via histamine, acetylcholine or pentagastrin was induced by preincubation of the glands for 15 min before the experiment combined with BCECF (100 μM) loading. All data are summarized as mean±S.E. Significance was determined using the one-way ANOVA test with p<0.05 considered to be statistically significant. […]
# H+,K+-ATPase [5] = target: T1, H+,K+-ATPase; experiment: Intracellular pH recovery in rat corpus glands (fundus/corpus comparison); type: cell-based; settings: corpus glands
# Procedure: Molecular Probes, OR USA)) for 15 minutes. […] Measurements were performed in the epifluorescence mode with 60×/0.80 and 40×/0.90 objectives. […] Data points were acquired every 15 s. […] Acid extrusion was monitored in the absence of bicarbonate. […] All data are summarized as mean±S.E. Significance was determined using the one-way ANOVA test with p<0.05 considered to be statistically significant. All chemicals used were obtained from Sigma and Molecular Probes.
# Sequence of H+,K+-ATPase (Homo sapiens, UniProt P20648) (P20648 whole entry): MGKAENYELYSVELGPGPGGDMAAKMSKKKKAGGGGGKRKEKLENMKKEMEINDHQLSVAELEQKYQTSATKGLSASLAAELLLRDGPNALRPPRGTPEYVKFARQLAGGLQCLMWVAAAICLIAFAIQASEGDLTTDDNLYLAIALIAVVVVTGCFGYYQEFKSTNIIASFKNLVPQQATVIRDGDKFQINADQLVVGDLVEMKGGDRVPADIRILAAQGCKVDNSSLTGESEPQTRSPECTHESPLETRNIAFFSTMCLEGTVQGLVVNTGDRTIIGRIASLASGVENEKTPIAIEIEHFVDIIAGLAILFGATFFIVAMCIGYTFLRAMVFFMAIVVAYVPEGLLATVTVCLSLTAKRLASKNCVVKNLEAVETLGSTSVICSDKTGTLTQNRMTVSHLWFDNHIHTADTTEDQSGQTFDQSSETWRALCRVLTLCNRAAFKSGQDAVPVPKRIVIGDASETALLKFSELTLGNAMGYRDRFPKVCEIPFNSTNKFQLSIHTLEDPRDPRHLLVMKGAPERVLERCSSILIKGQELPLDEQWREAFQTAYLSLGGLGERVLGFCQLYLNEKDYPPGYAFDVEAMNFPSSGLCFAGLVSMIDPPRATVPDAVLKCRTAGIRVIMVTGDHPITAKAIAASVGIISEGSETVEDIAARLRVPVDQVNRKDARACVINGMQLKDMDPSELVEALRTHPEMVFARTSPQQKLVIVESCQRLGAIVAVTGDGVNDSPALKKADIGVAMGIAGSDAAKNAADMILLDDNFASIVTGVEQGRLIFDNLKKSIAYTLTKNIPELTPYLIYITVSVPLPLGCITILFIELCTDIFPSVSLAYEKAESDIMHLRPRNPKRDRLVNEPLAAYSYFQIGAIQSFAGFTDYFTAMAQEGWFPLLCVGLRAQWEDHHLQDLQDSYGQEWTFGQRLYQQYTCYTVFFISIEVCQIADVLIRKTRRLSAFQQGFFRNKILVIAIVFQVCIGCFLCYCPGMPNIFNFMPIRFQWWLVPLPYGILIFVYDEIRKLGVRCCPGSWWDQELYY
# Sequence of H+,K+-ATPase (Homo sapiens, UniProt P20648) (P51164 whole entry partner): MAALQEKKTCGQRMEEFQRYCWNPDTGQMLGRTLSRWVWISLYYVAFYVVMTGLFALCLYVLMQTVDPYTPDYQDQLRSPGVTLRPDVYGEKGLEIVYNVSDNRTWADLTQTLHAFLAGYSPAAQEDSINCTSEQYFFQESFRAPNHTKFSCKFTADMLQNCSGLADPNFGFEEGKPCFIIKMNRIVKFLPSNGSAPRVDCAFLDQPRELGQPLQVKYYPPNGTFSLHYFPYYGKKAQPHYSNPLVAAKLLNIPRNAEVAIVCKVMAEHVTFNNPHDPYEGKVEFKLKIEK
# T1 sequence (P09626 whole entry): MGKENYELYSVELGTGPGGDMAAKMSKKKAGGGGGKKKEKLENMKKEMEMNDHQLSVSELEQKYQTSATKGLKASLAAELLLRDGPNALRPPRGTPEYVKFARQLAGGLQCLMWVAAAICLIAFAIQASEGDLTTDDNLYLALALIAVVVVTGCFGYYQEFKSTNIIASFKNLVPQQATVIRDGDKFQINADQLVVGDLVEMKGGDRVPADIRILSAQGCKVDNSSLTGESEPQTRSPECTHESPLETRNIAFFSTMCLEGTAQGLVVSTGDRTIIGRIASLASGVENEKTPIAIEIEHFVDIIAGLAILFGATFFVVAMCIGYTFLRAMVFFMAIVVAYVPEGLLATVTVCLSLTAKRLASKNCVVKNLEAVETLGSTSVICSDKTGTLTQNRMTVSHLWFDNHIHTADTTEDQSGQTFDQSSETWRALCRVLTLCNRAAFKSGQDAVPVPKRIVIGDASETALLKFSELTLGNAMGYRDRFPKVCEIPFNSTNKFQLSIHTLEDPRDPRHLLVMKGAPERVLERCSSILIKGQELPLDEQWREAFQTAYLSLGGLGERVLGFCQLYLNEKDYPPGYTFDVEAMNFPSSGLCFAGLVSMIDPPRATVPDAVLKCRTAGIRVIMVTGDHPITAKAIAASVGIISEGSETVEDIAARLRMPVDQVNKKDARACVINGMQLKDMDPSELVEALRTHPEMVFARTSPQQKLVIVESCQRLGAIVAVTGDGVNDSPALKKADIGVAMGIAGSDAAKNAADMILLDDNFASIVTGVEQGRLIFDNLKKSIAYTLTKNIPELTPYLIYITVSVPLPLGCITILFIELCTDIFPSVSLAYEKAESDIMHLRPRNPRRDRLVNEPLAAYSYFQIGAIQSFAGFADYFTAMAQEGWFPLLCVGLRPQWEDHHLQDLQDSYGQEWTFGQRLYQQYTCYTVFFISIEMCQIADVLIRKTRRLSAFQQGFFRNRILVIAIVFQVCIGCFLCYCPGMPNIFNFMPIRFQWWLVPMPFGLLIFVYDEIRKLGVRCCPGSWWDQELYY
# T1 sequence (P18598 whole entry partner): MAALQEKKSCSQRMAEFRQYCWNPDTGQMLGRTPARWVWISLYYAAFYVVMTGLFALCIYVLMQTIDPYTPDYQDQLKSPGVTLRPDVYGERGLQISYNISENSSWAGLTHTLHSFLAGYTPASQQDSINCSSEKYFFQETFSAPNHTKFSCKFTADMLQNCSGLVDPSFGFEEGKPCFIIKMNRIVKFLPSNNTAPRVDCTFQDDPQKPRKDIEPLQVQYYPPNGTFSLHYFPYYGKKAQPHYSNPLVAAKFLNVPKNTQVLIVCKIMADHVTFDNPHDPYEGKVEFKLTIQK
# T2 sequence (P09626 whole entry): as the sequence (P09626 whole entry) above
# T2 sequence (P18598 whole entry partner): as the sequence (P18598 whole entry partner) above
SMILES,"inhibition of proton extrusion (H+,K+-ATPase [1]; 300 μM ZnCl2, compared to the histamine (100 μM) induced rate) [%]","onset of inhibition of histamine induced acid secretion (H+,K+-ATPase [1]; ZnCl2 300 μM added to superfusion bath during alkalinization, histamine 100 μM)","reversibility of inhibition after removal of ZnCl2 (H+,K+-ATPase [1]; ZnCl2 300 μM, histamine 100 μM)","effect on histamine induced acid secretion (in words) (H+,K+-ATPase [1]; rat gastric glands, histamine 100 μM, ZnCl2 25-300 μM)","luminal pH ([2]; 100 μM histamine and 300 μM ZnCl2, 1 hour)",luminal pH compared with histamine alone (in words) ([2]; 100 μmol histamine and 300 μmol ZnCl2),histamine induced proton extrusion rate after oral ZnCl2 ([3]; 0.05 mg/kg/d ZnCl2 in drinking water for 5 days),histamine induced proton extrusion rate after oral ZnCl2 ([3]; 150 mg/kg/d ZnCl2 in drinking water for 5 days),"effect on histamine stimulated proton efflux (in words) (H+,K+-ATPase [4]; histamine 100 μM, ZnCl2 300 μM)","effect on fundic (F1) acid secretion (in words) (fundic H+,K+-ATPase)","effect on corpus acid secretion (in words) (H+,K+-ATPase [5])","recovery rate (proton extrusion) of histamine stimulated parietal cells ([3]; control group with histamine alone, no ZnCl2)","F1 gland alkalinization rate (fundic H+,K+-ATPase; 100 μM secretagogue alone)","proton efflux under histamine stimulation (in words) (H+,K+-ATPase [4]; histamine alone)"
"[Cl-].[Cl-].[Zn+2] [ZnCl2, zinc chloride]",98,a few seconds,increase of the intracellular pH continued; also recorded: returns to normal levels,blocked; also recorded: dose dependent manner,4.54±0.065,higher pH,0.034±0.0036 ΔpH/min,0.022±0.0045 ΔpH/min,blocked; also recorded: abolished,–,–,–,–,–
Cc1cccc(C)c1CNc1cc(C(=O)NCCO)cn2c(C)c(C)nc12 [AZD0865],–,–,–,–,–,–,–,–,–,does not completely inhibit proton extrusion,effectively inhibits acid secretion,–,–,–
NCCc1c[nH]cn1 [histamine],–,–,–,–,–,–,–,–,–,no effect,–,0.051±0.004 ΔpH/min,0.042±0.007 ΔpHi/min and 0.040±0.0079 ΔpHi/min,robust proton efflux
